These results are taken from US20260250278A1, “PHENYL-SUBSTITUTED DIHYDRONAPHTHYRIDINE COMPOUNDS, AND PREPARATION AND USE THEREOF” (SUZHONG PHARMACEUTICAL GROUP CO., LTD., priority 2022, published 2026).

Data set [1] deals with diabetic nephropathy mouse model. The data set can be described thus: Pharmacodynamic effects on diabetic nephropathy mouse model. Format: in vivo. As to conditions: KK-Ay mice. On the procedure: The pharmacodynamic effects of the compounds 36 and 62 on the diabetic nephropathy mouse model were evaluated.
• Strain: C57BL/6 mice, and KK-Ay mice • Weeks of age: the animals were raised to 6 weeks to 8 weeks of age, and the experiment was started when the animals were 7 weeks to 9 weeks of age • Sex: male • Weight: C57BL/6 mice: 21 g to 23 g, and KK-Ay mice: 25 g to 30 g • Number: 72 experimental animals
On the day of administration, the animals were randomly divided into 9 groups according to their weights, comprising a model group (KK-Ay+solvent), a Finerenone group (KK-Ay+Finerenone: 3 mg/kg), a low-dose compound 62 group (KK-Ay+compound 62: 1 mg/kg), a middle-dose compound 62 group (KK-Ay+compound 62: 3 mg/kg) and high-dose compound 62 group (KK-Ay+compound 62: 10 mg/kg), a low-dose compound 36 group (KK-Ay+compound 36: 1 mg/kg), a middle-dose compound 36 group (KK-Ay+compound 36: 3 mg/kg) and a high-dose compound 36 group (KK-Ay+compound 36: 10 mg/kg). Specific grouping and administration schemes referred to Table 70-2.
When the experiment was started, 24-hour urine of the mice was collected by a metabolic cage in 2nd, 4th, 6th and 8th weeks before and after modeling, and microalbumin (MALB) and creatinine (CREA) contents of the urine were detected by CANON TBA-120FR automatic blood biochemistry to calculate (MALB/CREA).
When the experiment was ended, the mice were euthanized, the blood was taken by heart puncture and put into an anticoagulant-free EP tube, allowed to stand at room temperature for 0.5 hour, and then centrifuged at 4° C. and 6000 g for 15 minutes, and the serum was collected and transferred to a new EP tube, and stored in a refrigerator at −80° C. An insulin content of the serum and serum ions were detected by an ELISA method.
After the experiment was ended, the kidneys of all animals were dissected and collected, fixed in formalin, embedded and made into sections for PAS staining and Masson staining, and then quantitatively analyzed.
Experimental results were expressed as “mean value±standard deviation”. The data of each group were statistically analyzed by GraphPad 8.0 software, and p<0.05 was considered to be statistically significant.

Data set [2] is described as follows: Tissue distribution, AUC ratio of heart to kidney. The class given is in vivo. To be noted: compared with Finerenone.

For `CCOc1ncc(C)c2c1[C@H](c1ccc(C#N)c3c1OCO3)C(C(N)=O)=C(C)N2` [Example 62, (S)-4-(7-cyanobenzo[d][1,3]dioxol-4-yl)-5-ethoxy-2,8-dimethyl-1,4-dihydro-1,6-naphthyridine-3-formamide], in data set [1], the “diabetic nephropathy and hypertension” value is on record as “improve”; the urinary protein/creatinine ratio result was “significantly reduce”; the urinary sodium excretion result is on record as “significantly promote”.
On to `CCOc1ncc(C)c2c1[C@H](c1ccc(C#N)c3c1OCC3)C(C(N)=O)=C(C)N2` [Example 36, (S)-4-(4-cyano-2,3-dihydrobenzofuran-7-yl)-5-ethoxy-2,8-dimethyl-1,4-dihydro-1,6-naphthyridine-3-formamide], for which, in data set [1], the “diabetic nephropathy and hypertension” value was “improve”; the urinary protein/creatinine ratio entry is reported as “significantly reduce”; the urinary sodium excretion result is “significantly promote”. The “AUC (tissue distribution) ratio of heart to kidney” value in data set [2] is on record as “lower”.
